Data on 27 compounds can be found in patent publication US8889677B2, “Substituted triazoles useful as mGlu5 receptor modulators” (Boehringer Ingellheim International GmbH, priority 2012, dated 2014).

T1 sequence (P41594 21-1212): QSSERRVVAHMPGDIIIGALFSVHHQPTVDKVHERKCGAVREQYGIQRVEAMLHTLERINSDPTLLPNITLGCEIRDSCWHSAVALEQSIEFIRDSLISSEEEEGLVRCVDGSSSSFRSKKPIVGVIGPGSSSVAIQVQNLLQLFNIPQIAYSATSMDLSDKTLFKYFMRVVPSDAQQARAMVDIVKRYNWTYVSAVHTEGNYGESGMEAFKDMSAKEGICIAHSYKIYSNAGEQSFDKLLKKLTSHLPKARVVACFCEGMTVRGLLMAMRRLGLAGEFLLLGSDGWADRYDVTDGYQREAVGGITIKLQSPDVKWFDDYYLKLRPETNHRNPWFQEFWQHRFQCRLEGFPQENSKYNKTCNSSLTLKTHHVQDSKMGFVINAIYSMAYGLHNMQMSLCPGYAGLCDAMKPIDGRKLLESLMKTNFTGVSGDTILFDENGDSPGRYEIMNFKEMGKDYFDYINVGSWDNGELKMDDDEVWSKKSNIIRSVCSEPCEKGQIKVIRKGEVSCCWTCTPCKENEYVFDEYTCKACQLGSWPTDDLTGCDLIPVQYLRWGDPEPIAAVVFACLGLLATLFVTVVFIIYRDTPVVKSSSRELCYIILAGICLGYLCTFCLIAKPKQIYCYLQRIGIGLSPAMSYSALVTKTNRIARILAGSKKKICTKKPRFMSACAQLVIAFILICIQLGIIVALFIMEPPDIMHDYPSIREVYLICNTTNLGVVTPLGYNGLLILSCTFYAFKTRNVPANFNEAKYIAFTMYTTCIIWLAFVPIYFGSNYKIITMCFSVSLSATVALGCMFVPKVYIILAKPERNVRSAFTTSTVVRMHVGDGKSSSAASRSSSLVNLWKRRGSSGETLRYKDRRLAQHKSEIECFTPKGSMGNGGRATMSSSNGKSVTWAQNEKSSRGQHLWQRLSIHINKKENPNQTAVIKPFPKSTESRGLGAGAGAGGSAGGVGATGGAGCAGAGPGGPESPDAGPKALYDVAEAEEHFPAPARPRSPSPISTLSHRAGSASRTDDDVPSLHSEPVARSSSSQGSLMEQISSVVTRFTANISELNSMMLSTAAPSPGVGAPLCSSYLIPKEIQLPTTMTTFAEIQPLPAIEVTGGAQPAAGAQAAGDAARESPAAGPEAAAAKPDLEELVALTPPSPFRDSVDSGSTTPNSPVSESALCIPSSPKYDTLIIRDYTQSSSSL

The test concerns the target T1, human recombinant mGluR5 (Homo sapiens, UniProt P41594).
T1 construct: expressed in transfected cells; host or cells: HEK 293 cell line cultured with tetracycline, hygromycin and geneticin; tetracycline removed 3-7 days before the assay
The test can be described thus: positive modulation of mGluR5, calcium based FLIPR assay in HEK 293 cells. The following applies: HEK 293 cell line expressing human recombinant mGluR5; EC50 of the modulation of the glutamate response (glutamate approx. 5% basal stimulation); peak height of Ca release fluorescence signal. The procedure, abridged: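 HEK 293 cells expressing human mGluR5 (tetracycline-free medium 3-7 days before), loaded with Calcium-4 dye, in Ringer buffer pH 7.4, 1% DMSO. Compound pre-incubated 5 min, then glutamate at about 5% of maximal effect added; EC50 from peak Ca2+ fluorescence by nonlinear regression, scaled between DMSO (100%) and 10 μM CDPPB (200%) controls.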
As a reminder, the EC50 is the concentration at which the effect is half-maximal. For `CCc1nc(-c2ccc(F)c(C)c2)nn1CC(=O)N1CCN(c2ccccn2)CC1` [Example 07.04.091.], the EC50 stood at 1.09 µM. The figure for `CCc1nc(-c2ccc(F)c(C)c2)nn1CC(=O)N1CCN(c2ncccn2)CC1` [Example 07.04.092.] is 0.654 µM. The figure for `CCc1nc(-c2ccc(F)c(C)c2)nn1CC(=O)N1CCN(c2cc(OC)ncn2)CC1` [Example 07.04.093.] is 1.73 µM; for `CCc1nc(-c2ccc(F)c(C)c2)nn1CC(=O)N1CCN(c2cc(OC)ccn2)CC1` [Example 07.04.094.] it is 0.991 µM. In the case of `Cc1cc(-c2nc(C)n(CC(=O)N3CCN(c4ccccn4)CC3)n2)ccc1F` [Example 07.04.095.], the EC50 amounted to 1.66 µM. For the compound `COc1ccnc(N2CCN(C(=O)Cn3nc(-c4ccc(F)c(C)c4)nc3C)CC2)c1` [Example 07.04.096.], the EC50 came to 1.52 µM. With `Cc1cc(-c2nc(C)n(CC(=O)N3CCN(c4ncccn4)CC3)n2)ccc1F` [Example 07.04.097.], the EC50 worked out at 1.19 µM. In the case of `Cc1ccnc(N2CCN(C(=O)Cn3nc(-c4ccc(F)c(C)c4)nc3C)CC2)c1` [Example 07.04.098.], the EC50 came out at 0.738 µM.

On to `CCC(C)c1nc(-c2ccc(F)c(C)c2)nn1CC(=O)N1CCN(c2cc(C)ccn2)CC1` (stereo not drawn) [Example 07.04.099.], for which the EC50 was determined as 0.499 µM. With `CCC(C)c1nc(-c2ccc(F)c(C)c2)nn1CC(=O)N1CCN(c2cc(OC)ccn2)CC1` (stereo not drawn) [Example 07.04.0100.], the concentration giving a half-maximal response (EC50) turned out to be 0.67 µM.

With `CCC(C)c1nc(-c2ccc(F)c(C)c2)nn1CC(=O)N1CCN(c2ncccn2)CC1` (stereo not drawn) [Example 07.04.101.], the EC50 came out at 0.294 µM. As to `CCC(C)c1nc(-c2ccc(F)c(C)c2)nn1CC(=O)N1CCN(c2ccccn2)CC1` (stereo not drawn) [Example 07.04.102.], the EC50 worked out at 0.998 µM. In the case of `CCC(C)c1nc(-c2ccc(F)c(C)c2)nn1CC(=O)N1CCN(c2cc(OC)ncn2)CC1` (stereo not drawn) [Example 07.04.103.], the EC50 came to 0.748 µM. With `CCC(C)c1nc(-c2ccc(F)c(C)c2)nn1CC(=O)N1CCN(c2cccnn2)CC1` (stereo not drawn) [Example 07.04.104.], the EC50 amounted to 1.85 µM. As for `Cc1ccnc(N2CCN(C(=O)Cn3nc(-c4ccc(F)c(C)c4)nc3CC(C)C)CC2)c1` [Example 07.04.105.], the figure is 0.382 µM; as for `Cc1cc(-c2nc(CC(C)C)n(CC(=O)N3CCN(c4ccccn4)CC3)n2)ccc1F` [Example 07.04.106.], 0.387 µM. With `COc1ccnc(N2CCN(C(=O)Cn3nc(-c4ccc(F)c(C)c4)nc3CC(C)C)CC2)c1` [Example 07.04.107.], the EC50 was 0.5 µM.

Take `Cc1cc(-c2nc(CC(C)C)n(CC(=O)N3CCN(c4ncccn4)CC3)n2)ccc1F` [Example 07.04.108.]: the EC50 is 0.317 µM. As for `COc1cc(N2CCN(C(=O)Cn3nc(-c4ccc(F)c(C)c4)nc3CC(C)C)CC2)ncn1` [Example 07.04.109.], the figure is 0.824 µM. Regarding `COc1ccnc(N2CCN(C(=O)Cn3nc(-c4ccc(F)c(C)c4)nc3C3CCCC3)CC2)c1` [Example 07.04.110.], the EC50 came to 0.409 µM. On to `Cc1cc(-c2nc(C3CCCC3)n(CC(=O)N3CCN(c4ncccn4)CC3)n2)ccc1F` [Example 07.04.111.], for which the EC50 is 0.131 µM. Consider `COc1cc(N2CCN(C(=O)Cn3nc(-c4ccc(F)c(C)c4)nc3C3CCCC3)CC2)ncn1` [Example 07.04.112.], for which the EC50 is 0.311 µM.

Turning to `Cc1cc(-c2nc(C3CCCC3)n(CC(=O)N3CCN(c4ccccn4)CC3)n2)ccc1F` [Example 07.04.113.], the EC50 came to 0.263 µM. As for `Cc1ccnc(N2CCN(C(=O)Cn3nc(-c4ccc(F)c(C)c4)nc3C3CCCC3)CC2)c1` [Example 07.04.114.], the concentration for a half-maximal effect (EC50) was determined as 0.495 µM. With `CCCCc1nc(-c2ccc(F)c(C)c2)nn1CC(=O)N1CCN(c2cc(C)ccn2)CC1` [Example 07.04.115.], the EC50 amounted to 0.208 µM. Regarding `CCCCc1nc(-c2ccc(F)c(C)c2)nn1CC(=O)N1CCN(c2ccccn2)CC1` [Example 07.04.116.], the EC50 turned out to be 0.697 µM.

`CCCCc1nc(-c2ccc(F)c(C)c2)nn1CC(=O)N1CCN(c2ncccn2)CC1` [Example 07.04.117.]: the EC50 is 0.39 µM.
